# Results published in ChEMBL document CHEMBL1201862, “PubChem BioAssay data set” (2004).
# The source made the active and inactive calls.
# How the values were obtained:
# [1] = target: Heat shock protein HSP 90-alpha (Homo sapiens, UniProt P07900); test: Luminescence-based dose response biochemical high throughput screening assay for inhibitors of the Heat Shock Protein 90 (HSP90). [Related pubchem assays: 1831 (Summary AID.), 1846 (Confirmation screen.), 1789 (Primary screen.)]
# [2] = target: Dual specificity tyrosine-phosphorylation-regulated kinase 1A (Rattus norvegicus, UniProt Q63470); assay type: biochemical, Homo sapiens
# [3] = Luminescent dose response cell-based high throughput screening assay for inhibitors of the Janus kinase 2 mutant JAK2V617F. [Related pubchem assays: 1446 (Primary screen.), 1521 (Confirmation assay.), 1486 (Counter screen.)]; assay type: functional
# [4] = target: Cytochrome P450 2C19 (Homo sapiens, UniProt P33261); test: Cytochrome panel assay with activity outcomes. Panel member name: p450-cyp2c19 Compounds with AC50 equal or less than 10 uM are considered active; assay type: functional; settings: read-out: AC50
# [5] = target: 5-hydroxytryptamine receptor 1A (Homo sapiens, UniProt P08908); assay type: functional
# [6] = target: T1, Estrogen receptor (Homo sapiens, UniProt P03372);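 further: potency for inhibiting coactivator peptide recruitment to the receptor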
# T1 sequence (P03372 whole entry): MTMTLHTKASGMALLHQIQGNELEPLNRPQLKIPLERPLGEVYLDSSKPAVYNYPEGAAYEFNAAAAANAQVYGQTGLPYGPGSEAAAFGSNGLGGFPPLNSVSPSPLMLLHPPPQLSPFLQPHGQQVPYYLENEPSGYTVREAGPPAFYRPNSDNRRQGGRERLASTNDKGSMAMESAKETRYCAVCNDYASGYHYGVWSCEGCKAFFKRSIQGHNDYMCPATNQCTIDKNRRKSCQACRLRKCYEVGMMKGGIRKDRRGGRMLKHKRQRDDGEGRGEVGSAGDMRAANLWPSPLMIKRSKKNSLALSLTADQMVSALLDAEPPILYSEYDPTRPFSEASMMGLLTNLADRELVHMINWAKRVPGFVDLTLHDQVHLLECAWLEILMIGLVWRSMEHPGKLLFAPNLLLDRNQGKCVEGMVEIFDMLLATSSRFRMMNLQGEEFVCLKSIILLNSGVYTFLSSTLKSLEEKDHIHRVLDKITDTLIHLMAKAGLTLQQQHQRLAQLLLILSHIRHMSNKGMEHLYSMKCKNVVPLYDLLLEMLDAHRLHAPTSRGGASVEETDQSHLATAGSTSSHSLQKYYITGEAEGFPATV
# [7] = target: T2, Zinc finger protein mex-5 (Caenorhabditis elegans, UniProt Q9XUB2); test: MEX-5/TCR-2 RNA interaction inhibitors, dose response, biochemical, C. elegans, fluorescence polarization (AID 1960)
# T2 sequence (Q9XUB2 whole entry): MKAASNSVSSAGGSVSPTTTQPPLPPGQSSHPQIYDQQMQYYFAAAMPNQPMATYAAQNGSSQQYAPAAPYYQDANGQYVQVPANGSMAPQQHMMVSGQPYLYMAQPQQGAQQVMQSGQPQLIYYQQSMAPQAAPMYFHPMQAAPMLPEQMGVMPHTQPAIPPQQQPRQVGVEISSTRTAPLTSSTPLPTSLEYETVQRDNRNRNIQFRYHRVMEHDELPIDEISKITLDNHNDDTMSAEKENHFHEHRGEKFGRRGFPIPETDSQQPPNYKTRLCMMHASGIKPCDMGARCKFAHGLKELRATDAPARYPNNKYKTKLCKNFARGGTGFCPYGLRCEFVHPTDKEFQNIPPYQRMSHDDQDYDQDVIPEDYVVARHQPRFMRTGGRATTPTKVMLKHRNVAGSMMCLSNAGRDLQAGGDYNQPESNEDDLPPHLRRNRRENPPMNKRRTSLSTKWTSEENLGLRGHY
# [8] = target: 14-3-3 protein gamma (Homo sapiens, UniProt P61981); test: modulators of 14-3-3 gamma client binding – dose response (AID 711); assay type: functional
# [9] = target: T3, Polyadenylate-binding protein 1 (Homo sapiens, UniProt P11940); test: PABP1 MLLE–PAM2 interaction inhibitors, dose response, miRNA deadenylation inhibitor project, biochemical, fluorescence polarization, Cy5-PAM2 peptide, secondary (AID 602260); assay type: functional; settings: read-out: IC50_Mean
# [10] = target: Estrogen receptor beta (Homo sapiens, UniProt Q92731); test: ERβ–SRC-3 coactivator interaction inhibitors, confirmation, orthogonal assay, biochemical, ELISA, streptavidin-HRP readout (AID 1060)
# [11] = target: T3, Polyadenylate-binding protein 1; test: PABP1 MLLE–PAM2 binding inhibitor potency, dose response, biochemical, fluorescence polarization, FITC-PAM2 peptide (AID 602259); assay type: functional; settings: read-out: IC50_Mean
# [12] = target: T4, Aminopeptidase N (Plasmodium falciparum FcB1/Columbia, UniProt O96935); test: P. falciparum M1AAP inhibitors, biochemical, fluorogenic H-Leu-NHMec substrate, 1536-well (AID 1445); design: species or system Plasmodium falciparum 3D7, 3D7
# T4 sequence (O96935 whole entry): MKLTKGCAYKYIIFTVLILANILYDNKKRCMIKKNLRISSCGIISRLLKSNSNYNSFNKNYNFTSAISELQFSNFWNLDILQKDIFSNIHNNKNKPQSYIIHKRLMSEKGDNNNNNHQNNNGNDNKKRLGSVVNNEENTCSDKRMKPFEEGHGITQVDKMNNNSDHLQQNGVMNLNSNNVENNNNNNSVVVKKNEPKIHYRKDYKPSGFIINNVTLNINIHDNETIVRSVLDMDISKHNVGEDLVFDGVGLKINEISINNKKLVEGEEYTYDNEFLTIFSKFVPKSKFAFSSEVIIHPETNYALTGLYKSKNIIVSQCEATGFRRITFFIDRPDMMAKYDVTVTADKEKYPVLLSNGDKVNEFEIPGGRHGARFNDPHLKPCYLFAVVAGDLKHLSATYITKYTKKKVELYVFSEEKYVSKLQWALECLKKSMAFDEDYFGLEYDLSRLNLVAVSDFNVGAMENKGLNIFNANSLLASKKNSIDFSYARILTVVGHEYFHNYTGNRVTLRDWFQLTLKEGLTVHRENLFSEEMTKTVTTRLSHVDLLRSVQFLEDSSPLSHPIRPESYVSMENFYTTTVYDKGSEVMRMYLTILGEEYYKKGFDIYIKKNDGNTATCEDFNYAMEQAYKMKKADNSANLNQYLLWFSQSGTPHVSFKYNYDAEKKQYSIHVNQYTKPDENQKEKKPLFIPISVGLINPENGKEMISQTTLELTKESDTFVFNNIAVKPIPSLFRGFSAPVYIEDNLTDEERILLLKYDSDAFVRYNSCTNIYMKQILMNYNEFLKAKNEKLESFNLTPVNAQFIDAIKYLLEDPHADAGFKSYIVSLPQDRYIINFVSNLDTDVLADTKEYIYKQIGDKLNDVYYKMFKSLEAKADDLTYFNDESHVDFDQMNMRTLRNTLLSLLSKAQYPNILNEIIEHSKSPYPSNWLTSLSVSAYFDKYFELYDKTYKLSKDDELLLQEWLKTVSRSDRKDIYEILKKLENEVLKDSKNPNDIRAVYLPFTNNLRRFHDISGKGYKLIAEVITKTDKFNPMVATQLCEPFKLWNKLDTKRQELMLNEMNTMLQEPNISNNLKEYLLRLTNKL
# [13] = target: T5, RNA-binding protein pos-1 (Caenorhabditis elegans, UniProt G5EF15); test: inhibitors of POS-1/mex-3 RNA binding, dose response, biochemical, fluorescence polarization (AID 1964);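 further: purified POS-1 fused to maltose binding protein made in E. coli; potency of compounds blocking POS-1 binding to fluorescent RNA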
# T5 sequence (G5EF15 whole entry): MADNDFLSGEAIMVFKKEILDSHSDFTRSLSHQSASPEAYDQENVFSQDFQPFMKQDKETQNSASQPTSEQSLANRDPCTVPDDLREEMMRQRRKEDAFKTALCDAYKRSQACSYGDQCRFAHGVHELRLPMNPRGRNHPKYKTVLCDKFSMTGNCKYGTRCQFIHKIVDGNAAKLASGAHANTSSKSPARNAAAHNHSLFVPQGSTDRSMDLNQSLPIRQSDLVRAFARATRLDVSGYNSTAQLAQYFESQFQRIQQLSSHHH
# [14] = target: Bifunctional protein GlmU (Mycobacterium tuberculosis, UniProt P9WMN3); test: Inhibitors of Mycobacterial Glucosamine-1-phosphate acetyl transferase (GlmU). Secondary screen.; design: species or system Mycobacterium tuberculosis H37Rv
# [15] = target: T6, Protein Tat (Human immunodeficiency virus type 1 group M subtype B (isolate HXB2)(HIV-1), UniProt P04608); assay type: functional;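 further: tat binding to TAR RNA read out by fluorescence polarization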
# T6 sequence (P04608 whole entry): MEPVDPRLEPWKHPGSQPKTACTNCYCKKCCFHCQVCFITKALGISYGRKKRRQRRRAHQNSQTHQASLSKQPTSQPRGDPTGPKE
# [16] = inhibitors of intracellular T. cruzi replication, confirmation, NIH3T3 host cells, beta-gal luminescence (AID 2044); assay type: functional, cell-based;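 further: intracellular parasites grown in NIH/3T3 mouse fibroblasts as host cells; luminescent beta-galactosidase reporter signal from transgenic T. cruzi replicating inside host cells; inhibitors lower the luminescence signal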
# [17] = Vero cell cytotoxicity, dose response, cytotoxicity control for Vif-APOBEC3G degradation inhibitor project, Vero cells (AID 1117358); assay type: functional; settings: Human immunodeficiency virus 1, Vero
# [18] = cytotoxicity toward NIH3T3 fibroblasts, dose response, counter-screen, cell-based, ATP luminescence, mouse fibroblasts (AID 2010); assay type: functional;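 further: cells exposed to compound for about 90 hours before reading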
# [19] = target: Peroxisome proliferator-activated receptor gamma/Nuclear receptor corepressor 2 (Homo sapiens, UniProt P37231+Q9Y618); test: Counterscreen for NR2E3 inverse agonists: TR-FRET-based biochemical high throughput dose response assay to identify inverse agonists of the interaction between peroxisome proliferator-activated receptor gamma (PPARg) and nuclear receptor co-repressor 2 (NCOR2).; assay type: functional
# [20] = target: Photoreceptor-specific nuclear receptor (Homo sapiens, UniProt Q9Y5X4); test: NR2E3 inverse agonists, dose response, biochemical, TR-FRET (AID 463256); assay type: functional
# [21] = target: Luciferin 4-monooxygenase (Photinus pyralis, UniProt P08659); test: Counter Screen for Luciferase-based Assay Positives. [Related pubchem assays: 620, 618, 411 ]
# [22] = test system: HT-1080; test: cytotoxicity in HT1080 fibrosarcoma cells, cell-based, fluorescence readout (AID 620); assay type: functional; settings: Homo sapiens
# [23] = test system: HEK293; test: inhibitors of LMP1-driven NF-kB reporter, dose response, cell-based, HEK293, luciferase, cherry-pick (AID 588343); assay type: functional; settings: Homo sapiens
# [24] = P. falciparum Dd2 growth inhibitors, dose response, SYBR Green, cherry-picked samples (AID 1159567); assay type: functional, cell-based
# [25] = HepG2 cell cytotoxicity, dose response, cytotoxicity control, cherry-picked samples (AID 1159577); assay type: functional, cell-based
# [26] = P. falciparum Dd2 growth inhibitors, dose response, SYBR Green, dry powder samples, set 9 (AID 1159568); assay type: functional, cell-based
# [27] = P. falciparum 3D7-ScDHODH growth inhibitors, dose response, SYBR Green, dry powder samples (AID 1159570); assay type: functional, cell-based;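 further: parasite growth measured after 72 hours of compound exposure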
# [28] = HepG2 cell cytotoxicity, dose response, cytotoxicity control, plate reader, dry powder samples (AID 1159569); assay type: functional, cell-based;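 further: inhibitor potency with signal falling toward the positive control level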
# [29] = P. falciparum Dd2 growth inhibitors, dose response, SYBR Green, dry powder samples (AID 1159566); assay type: functional, cell-based;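 further: potency for growth inhibition with lower SYBR green DNA signal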
# [30] = P. falciparum ATP4 D1247Y mutant growth inhibitors, dose response, NITD609-resistant line, SYBR Green, dry powder (AID 1159571); assay type: functional, cell-based;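 further: parasites synchronized at ring stage by sorbitol before testing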
# T3 sequence (P11940 whole entry): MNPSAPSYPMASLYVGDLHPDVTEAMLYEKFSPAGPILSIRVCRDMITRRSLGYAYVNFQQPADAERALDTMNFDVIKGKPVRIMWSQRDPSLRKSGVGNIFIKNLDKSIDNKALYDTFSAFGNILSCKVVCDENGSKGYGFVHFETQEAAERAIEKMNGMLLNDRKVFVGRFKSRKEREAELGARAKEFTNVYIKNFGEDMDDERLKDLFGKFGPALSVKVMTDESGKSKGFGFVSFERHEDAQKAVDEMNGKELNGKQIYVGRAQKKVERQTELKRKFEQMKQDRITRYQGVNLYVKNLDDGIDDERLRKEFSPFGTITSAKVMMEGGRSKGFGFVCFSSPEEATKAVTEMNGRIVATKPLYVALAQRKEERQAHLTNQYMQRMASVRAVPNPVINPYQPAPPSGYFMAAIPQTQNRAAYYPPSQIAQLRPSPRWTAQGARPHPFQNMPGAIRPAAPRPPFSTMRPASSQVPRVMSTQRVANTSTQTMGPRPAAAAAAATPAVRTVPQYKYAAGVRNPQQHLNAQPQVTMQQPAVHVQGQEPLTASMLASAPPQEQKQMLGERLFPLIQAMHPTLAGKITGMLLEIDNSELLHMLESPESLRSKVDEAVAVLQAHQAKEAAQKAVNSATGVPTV
# Chain of 5-hydroxytryptamine receptor 1A (P08908 whole entry): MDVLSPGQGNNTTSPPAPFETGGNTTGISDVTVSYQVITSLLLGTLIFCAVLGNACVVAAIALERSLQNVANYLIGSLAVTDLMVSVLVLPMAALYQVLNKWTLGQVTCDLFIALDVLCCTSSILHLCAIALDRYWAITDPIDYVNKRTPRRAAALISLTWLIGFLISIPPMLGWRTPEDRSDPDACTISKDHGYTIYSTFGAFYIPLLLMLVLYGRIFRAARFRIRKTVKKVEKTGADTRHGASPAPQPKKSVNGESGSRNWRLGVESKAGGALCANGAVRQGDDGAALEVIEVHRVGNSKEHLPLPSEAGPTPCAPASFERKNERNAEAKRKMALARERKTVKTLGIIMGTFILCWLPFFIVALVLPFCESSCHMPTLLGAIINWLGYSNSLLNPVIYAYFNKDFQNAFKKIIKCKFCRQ
# Chain of Cytochrome P450 2C19 (P33261 whole entry): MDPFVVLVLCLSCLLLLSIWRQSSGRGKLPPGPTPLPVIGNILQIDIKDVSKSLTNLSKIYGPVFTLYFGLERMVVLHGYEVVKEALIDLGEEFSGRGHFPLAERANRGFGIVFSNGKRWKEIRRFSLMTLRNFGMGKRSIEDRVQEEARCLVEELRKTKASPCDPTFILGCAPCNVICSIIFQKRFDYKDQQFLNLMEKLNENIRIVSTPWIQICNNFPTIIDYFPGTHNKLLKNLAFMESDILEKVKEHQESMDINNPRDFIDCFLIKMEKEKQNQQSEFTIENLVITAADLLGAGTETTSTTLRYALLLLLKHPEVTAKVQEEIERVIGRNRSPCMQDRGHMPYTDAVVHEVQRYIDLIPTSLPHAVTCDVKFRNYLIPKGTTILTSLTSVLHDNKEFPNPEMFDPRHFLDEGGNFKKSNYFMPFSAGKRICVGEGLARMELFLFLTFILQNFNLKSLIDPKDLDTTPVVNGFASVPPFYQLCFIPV
# Chain of Bifunctional protein GlmU (P9WMN3 whole entry): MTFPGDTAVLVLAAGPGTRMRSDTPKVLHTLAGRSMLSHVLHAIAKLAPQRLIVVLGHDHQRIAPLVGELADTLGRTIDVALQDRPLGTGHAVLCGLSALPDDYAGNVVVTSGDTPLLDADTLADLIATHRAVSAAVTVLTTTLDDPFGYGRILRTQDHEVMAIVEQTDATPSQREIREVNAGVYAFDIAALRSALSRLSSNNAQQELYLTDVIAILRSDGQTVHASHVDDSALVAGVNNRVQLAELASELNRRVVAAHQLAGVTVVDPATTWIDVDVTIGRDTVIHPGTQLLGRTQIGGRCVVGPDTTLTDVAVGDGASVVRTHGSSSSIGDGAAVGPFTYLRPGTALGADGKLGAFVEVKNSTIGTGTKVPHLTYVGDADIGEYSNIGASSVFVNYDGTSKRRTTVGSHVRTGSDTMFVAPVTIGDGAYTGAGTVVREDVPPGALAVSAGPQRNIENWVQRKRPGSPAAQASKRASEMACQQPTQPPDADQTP
# Chain of Estrogen receptor beta (Q92731 whole entry): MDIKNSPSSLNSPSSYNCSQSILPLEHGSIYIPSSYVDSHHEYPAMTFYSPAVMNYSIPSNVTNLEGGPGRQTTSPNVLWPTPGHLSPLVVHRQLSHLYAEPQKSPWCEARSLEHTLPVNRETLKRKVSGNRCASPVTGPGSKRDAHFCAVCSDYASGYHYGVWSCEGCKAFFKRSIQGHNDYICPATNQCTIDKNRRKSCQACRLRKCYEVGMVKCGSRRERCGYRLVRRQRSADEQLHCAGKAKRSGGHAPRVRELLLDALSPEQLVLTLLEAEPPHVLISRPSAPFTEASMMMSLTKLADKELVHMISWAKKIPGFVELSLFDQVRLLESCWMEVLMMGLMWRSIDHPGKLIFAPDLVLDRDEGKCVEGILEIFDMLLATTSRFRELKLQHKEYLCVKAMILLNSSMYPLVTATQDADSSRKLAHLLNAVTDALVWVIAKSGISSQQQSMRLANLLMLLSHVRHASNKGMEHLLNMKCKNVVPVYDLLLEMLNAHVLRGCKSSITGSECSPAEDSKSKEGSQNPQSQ
# Chain of Luciferin 4-monooxygenase (P08659 whole entry): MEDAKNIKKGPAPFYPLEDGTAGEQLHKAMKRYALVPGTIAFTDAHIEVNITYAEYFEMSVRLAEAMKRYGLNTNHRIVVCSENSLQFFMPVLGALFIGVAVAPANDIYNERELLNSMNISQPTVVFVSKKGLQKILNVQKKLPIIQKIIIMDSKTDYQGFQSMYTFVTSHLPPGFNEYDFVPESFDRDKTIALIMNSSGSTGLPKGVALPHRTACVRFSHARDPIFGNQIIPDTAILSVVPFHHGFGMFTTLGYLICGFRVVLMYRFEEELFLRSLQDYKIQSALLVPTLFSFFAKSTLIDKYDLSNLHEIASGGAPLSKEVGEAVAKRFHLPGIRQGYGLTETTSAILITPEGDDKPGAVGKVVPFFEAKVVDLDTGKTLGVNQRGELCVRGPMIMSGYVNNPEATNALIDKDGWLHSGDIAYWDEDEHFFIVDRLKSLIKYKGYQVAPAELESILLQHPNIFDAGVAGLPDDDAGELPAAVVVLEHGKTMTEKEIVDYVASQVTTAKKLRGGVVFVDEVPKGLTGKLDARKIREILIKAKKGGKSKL
# Chain of 14-3-3 protein gamma (P61981 whole entry): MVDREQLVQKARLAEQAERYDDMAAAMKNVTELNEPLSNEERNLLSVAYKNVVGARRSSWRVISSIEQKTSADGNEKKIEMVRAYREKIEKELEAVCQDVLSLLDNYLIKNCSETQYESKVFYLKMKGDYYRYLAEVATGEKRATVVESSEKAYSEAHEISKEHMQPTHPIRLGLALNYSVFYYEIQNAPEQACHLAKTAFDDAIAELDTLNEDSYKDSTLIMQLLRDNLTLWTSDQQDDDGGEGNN
# Chain of Photoreceptor-specific nuclear receptor (Q9Y5X4 whole entry): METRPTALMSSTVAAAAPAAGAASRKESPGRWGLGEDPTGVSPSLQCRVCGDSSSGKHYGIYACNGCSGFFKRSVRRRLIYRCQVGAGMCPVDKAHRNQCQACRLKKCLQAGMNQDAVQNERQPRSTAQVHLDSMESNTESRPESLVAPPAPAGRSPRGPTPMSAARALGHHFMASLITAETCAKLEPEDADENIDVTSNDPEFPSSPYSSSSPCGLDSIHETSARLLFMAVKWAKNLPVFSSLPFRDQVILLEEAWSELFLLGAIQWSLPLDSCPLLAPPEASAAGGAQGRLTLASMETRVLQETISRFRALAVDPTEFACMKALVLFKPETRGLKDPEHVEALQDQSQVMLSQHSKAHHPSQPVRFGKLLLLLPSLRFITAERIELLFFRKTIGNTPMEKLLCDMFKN
compound,measurement,setting,value
COc1ccccc1NC(=O)c1coc(=O)c(Br)c1,IC50,[1],0.658 µM (active)
CS(=O)(=O)c1ccc(-c2cn3cc(C(=O)O)ccc3n2)cc1,AC50,[2],1.96 µM (active)
same,IC50,[1],2.5 µM (active)
COc1ccc(-c2cc(-c3cc(C)ccc3O)[nH]n2)cc1,IC50,[3],1.83 µM (active)
CCCCN(CC)Cc1ccc(CNC(=O)Nc2ccc(OC)cc2OC)o1,AC50,[4],11.2 µM (inconclusive)
same,EC50,[5],> 50 µM (not active)
COc1ccc(N(CC(=O)NC2CCCC2)C(=O)Cn2nnc(-c3ccc(C)cc3)n2)cc1OC,EC50,[5],> 50 µM (not active)
Cc1cc(=O)oc2c(CN3CCC(C)CC3)c(O)c(Cl)cc12,IC50,[6],23.7 µM (active)
same,EC50,[7],> 300 µM (not active)
same,IC50,[8],45.6 µM (not active)
same,IC50,[9],> 66 µM (inactive)
same,IC50,[10],5.23 µM (not active)
same,IC50,[11],37.7 µM (inactive)
same,IC50,[12],32.7 µM (active)
same,EC50,[13],> 300 µM (not active)
COc1ccc(OCc2cc(C(=O)O)c(C)o2)cc1,IC50,[14],51.7 µM (active)
Cc1noc(/C=C/c2ccco2)c1S(=O)(=O)N1CCC(C(=O)N2c3ccccc3CC2C)CC1 (stereo not given),IC50,[15],> 100 µM (active)
same,EC50,[16],1.66 µM (active)
same,CC50,[17],39.7 µM (active)
same,EC50,[18],> 60 µM (not active)
CC(=O)c1ccc(-c2ccc(C(=O)Nc3nc(C)c(C(C)=O)s3)o2)cc1,IC50,[19],9.53 µM (active)
same,IC50,[20],8.01 µM (active)
COc1cccc(C(=O)Nc2nc3ccccc3[nH]2)c1,EC50,[21],0.75 µM (active)
same,CC50,[17],> 40 µM (active)
same,EC50,[22],> 50 µM (not active)
same,AC50,[23],3.29 µM (active)
Cc1cccc(-c2ccc([C@@H]3[C@@H]4CN(C(=O)CN(C)C)C[C@H]3N4)cc2)c1,AC50,[24],3.46 µM (active)
same,AC50,[25],32.1 µM (active)
same,AC50,[26],4.19 µM (active)
C[C@@H]1CN([C@@H](C)CO)C(=O)c2cccc(NC(=O)c3nc4ccccc4s3)c2O[C@H]1CN(C)C(=O)Nc1ccc(C(F)(F)F)cc1,AC50,[27],0.274 µM (active)
same,AC50,[28],> 100 µM (inactive)
same,AC50,[24],1.06 µM (active)
same,AC50,[29],0.245 µM (active)
same,AC50,[30],0.323 µM (active)
CCCC(=O)N1CCC2(CC1)CN(S(=O)(=O)c1ccc(C)cc1)[C@@H](CO)c1[nH]c3cc(OC)ccc3c12,AC50,[27],0.137 µM (active)
same,AC50,[28],77.5 µM (active)
same,AC50,[24],< 0.3 µM (active)
same,AC50,[29],0.0986 µM (active)
same,AC50,[30],0.115 µM (active)
same,AC50,[26],0.182 µM (active)
